Molecular target: T1, lymphostatin (LifA; rLifA) (Escherichia coli, UniProt B7UI23)
T1 construct: gene E2348C_3234; full-length, C-terminal His6 tag kept, expressed in E. cloni (E. coli K-12) from pRham; 3229 residues as printed, 365 kDa, monomer
Experiment: intrinsic tryptophan fluorescence titration (ex […] nm, em […] nm)
Assay type: binding

With `CC(=O)N[C@H]1[C@@H](OP(=O)(O)OP(=O)(O)OC[C@H]2O[C@@H](n3ccc(=O)[nH]c3=O)[C@H](O)[C@@H]2O)O[C@H](CO)[C@@H](O)[C@@H]1O` [UDP-GlcNAc] the Kd was 120 ± 30 µM.

— article PMC4786716, “Biophysical Characterization and Activity of Lymphostatin, a Multifunctional Virulence Factor of Attaching and Effacing Escherichia coli” (The Journal of Biological Chemistry, 2016)
